Relative viability data for four cell lines are collected here from the supplement of paper PMC10307832.

Assay in all cases: relative viability (nuclei count vs DMSO), 5 days (fraction); higher = more cells survive
Compound in the experiment “Carboplatin + Tozasertib”: C1CC(C1)(C(=O)O)C(=O)O.[NH2-].[NH2-].[Pt+2] [Carboplatin] + Cc1cc(Nc2cc(N3CCN(C)CC3)nc(Sc3ccc(NC(=O)C4CC4)cc3)n2)n[nH]1 [Tozasertib] (partner 0.1 µM)
The procedure, abridged:
(§1)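 Relative viability divides the nuclei count in treated wells by that in vehicle wells. Lung cancer cell lines were seeded in 1536-well plates, dosed by pin tool the next day, and fixed and stained after 5 days in one step with final 0.05% Triton X-100, 1% formaldehyde and 1 ug/ml Hoechst. Dosing was a single drug or a fixed anchor-drug dose plus five library-drug doses (not always all listed) in √10 steps, and values are medians of duplicate plates imaged at 4×.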

Compound in the experiment “GSK126 + Trametinib”: CC[C@H](C)N1C=C(C2=C(C=C(C=C21)C3=CN=C(C=C3)N4CCNCC4)C(=O)NCC5=C(C=C(NC5=O)C)C)C [GSK126] + CC(=O)Nc1cccc(-n2c(=O)n(C3CC3)c(=O)c3c(Nc4ccc(I)cc4F)n(C)c(=O)c(C)c32)c1 [Trametinib] (partner 0.02 µM)
The essentials:
as §1

Compound in the experiment “GSK126 + Pemetrexed”: CC[C@H](C)N1C=C(C2=C(C=C(C=C21)C3=CN=C(C=C3)N4CCNCC4)C(=O)NCC5=C(C=C(NC5=O)C)C)C [GSK126] + Nc1nc2[nH]cc(CCc3ccc(C(=O)N[C@@H](CCC(=O)O)C(=O)O)cc3)c2c(=O)[nH]1 [Pemetrexed] (partner 0.2 µM)
The procedure, abridged: as §1

Compound in the experiment “MLN4924 + Dasatinib”: NS(=O)(=O)OC[C@@H]1C[C@@H](n2ccc3c(N[C@H]4CCc5ccccc54)ncnc32)C[C@@H]1O [MLN4924] + Cc1nc(Nc2ncc(C(=O)Nc3c(C)cccc3Cl)s2)cc(N2CCN(CCO)CC2)n1 [Dasatinib] (partner 0.075 µM)
The essentials: as §1

With HCC-366, the relative viability worked out at 0.13 with Carboplatin + Tozasertib (first compound 0.08 µM); 0.139 with Carboplatin + Tozasertib (first compound 0.253 µM); 0.111 with Carboplatin + Tozasertib (first compound 0.8 µM); 0.1 in the experiment with Carboplatin + Tozasertib (first compound 2.53 µM); 0.0814 with Carboplatin + Tozasertib (first compound 8 µM); 0.391 with GSK126 + Trametinib (first compound 0.08 µM). The relative viability with GSK126 + Trametinib (first compound 0.253 µM) came to 0.357; in the experiment with GSK126 + Trametinib (first compound 0.8 µM), 0.343; with GSK126 + Trametinib (first compound 2.53 µM), 0.309; in the experiment with GSK126 + Trametinib (first compound 8 µM), 0.337; with GSK126 + Pemetrexed (first compound 0.08 µM), 0.179; with GSK126 + Pemetrexed (first compound 0.253 µM), 0.161. The relative viability with GSK126 + Pemetrexed (first compound 0.8 µM) stood at 0.14; with GSK126 + Pemetrexed (first compound 2.53 µM) it was 0.149; in the experiment with GSK126 + Pemetrexed (first compound 8 µM) it was 0.158; with MLN4924 + Dasatinib (first compound 0.04 µM) it was 0.67; with MLN4924 + Dasatinib (first compound 0.1265 µM) it was 0.702; with MLN4924 + Dasatinib (first compound 0.4 µM) it was 0.967. Also, the relative viability is 0.627 in the experiment with MLN4924 + Dasatinib (first compound 1.265 µM) and 0.0684 with MLN4924 + Dasatinib (first compound 4 µM).
On to HCC-827, for which the relative viability amounted to 0.441 with Carboplatin + Tozasertib (first compound 0.08 µM); 0.414 with Carboplatin + Tozasertib (first compound 0.253 µM); 0.413 with Carboplatin + Tozasertib (first compound 0.8 µM); 0.418 in the experiment with Carboplatin + Tozasertib (first compound 2.53 µM); 0.397 with Carboplatin + Tozasertib (first compound 8 µM); 0.478 with GSK126 + Trametinib (first compound 0.08 µM). Further, the relative viability is 0.496 with GSK126 + Trametinib (first compound 0.253 µM); 0.54 with GSK126 + Trametinib (first compound 0.8 µM); 0.635 in the experiment with GSK126 + Trametinib (first compound 2.53 µM); 0.531 with GSK126 + Trametinib (first compound 8 µM); 0.264 with GSK126 + Pemetrexed (first compound 0.08 µM); 0.285 with GSK126 + Pemetrexed (first compound 0.253 µM). In addition, the relative viability stood at 0.249 with GSK126 + Pemetrexed (first compound 0.8 µM); 0.27 with GSK126 + Pemetrexed (first compound 2.53 µM); 0.287 with GSK126 + Pemetrexed (first compound 8 µM); 0.483 with MLN4924 + Dasatinib (first compound 0.04 µM); 0.608 with MLN4924 + Dasatinib (first compound 0.1265 µM); 0.771 with MLN4924 + Dasatinib (first compound 0.4 µM). For the same cell line, the relative viability with MLN4924 + Dasatinib (first compound 1.265 µM) came to 0.265; with MLN4924 + Dasatinib (first compound 4 µM), 0.187.
As to HOP-62, the relative viability came out at 0.377 with Carboplatin + Tozasertib (first compound 0.08 µM); 0.387 with Carboplatin + Tozasertib (first compound 0.253 µM); 0.378 in the experiment with Carboplatin + Tozasertib (first compound 0.8 µM); 0.378 with Carboplatin + Tozasertib (first compound 2.53 µM); 0.368 with Carboplatin + Tozasertib (first compound 8 µM); 0.406 with GSK126 + Trametinib (first compound 0.08 µM). Also, the relative viability in the experiment with GSK126 + Trametinib (first compound 0.253 µM) was found to be 0.411; with GSK126 + Trametinib (first compound 0.8 µM), 0.357; with GSK126 + Trametinib (first compound 2.53 µM), 0.383; with GSK126 + Trametinib (first compound 8 µM), 0.375; with GSK126 + Pemetrexed (first compound 0.08 µM) it was 0.335; with GSK126 + Pemetrexed (first compound 0.253 µM), 0.355. Besides, the relative viability with GSK126 + Pemetrexed (first compound 0.8 µM) came to 0.284; with GSK126 + Pemetrexed (first compound 2.53 µM) it was 0.289; with GSK126 + Pemetrexed (first compound 8 µM), 0.419; in the experiment with MLN4924 + Dasatinib (first compound 0.04 µM) it was 0.887; with MLN4924 + Dasatinib (first compound 0.1265 µM), 0.742; in the experiment with MLN4924 + Dasatinib (first compound 0.4 µM), 0.427. In addition, the relative viability with MLN4924 + Dasatinib (first compound 1.265 µM) turned out to be 0.0794; with MLN4924 + Dasatinib (first compound 4 µM), 0.076.
On to LC-2-ad, for which the relative viability came to 0.482 in the experiment with Carboplatin + Tozasertib (first compound 0.08 µM); 0.433 with Carboplatin + Tozasertib (first compound 0.253 µM); 0.496 with Carboplatin + Tozasertib (first compound 0.8 µM); 0.372 with Carboplatin + Tozasertib (first compound 2.53 µM); 0.374 with Carboplatin + Tozasertib (first compound 8 µM); 0.926 with GSK126 + Trametinib (first compound 0.08 µM). Besides, the relative viability in the experiment with GSK126 + Trametinib (first compound 0.253 µM) stood at 0.9; in the experiment with GSK126 + Trametinib (first compound 0.8 µM), 0.91; in the experiment with GSK126 + Trametinib (first compound 2.53 µM) it was 0.885; in the experiment with GSK126 + Trametinib (first compound 8 µM), 0.957; in the experiment with GSK126 + Pemetrexed (first compound 0.08 µM), 0.257; with GSK126 + Pemetrexed (first compound 0.253 µM), 0.265. In addition, the relative viability with GSK126 + Pemetrexed (first compound 0.8 µM) came to 0.278; in the experiment with GSK126 + Pemetrexed (first compound 2.53 µM), 0.281; with GSK126 + Pemetrexed (first compound 8 µM), 0.253; with MLN4924 + Dasatinib (first compound 0.04 µM) it was 0.551; with MLN4924 + Dasatinib (first compound 0.1265 µM), 0.408; in the experiment with MLN4924 + Dasatinib (first compound 0.4 µM) it was 0.498. For the same cell line, the results for the relative viability in the experiment with MLN4924 + Dasatinib (first compound 1.265 µM) and in the experiment with MLN4924 + Dasatinib (first compound 4 µM) were 0.144 and 0.2, respectively.
